Measurements from patent publication US20250163119A1, “COMPOUNDS FOR THE TREATMENT OF DIABETES OR OBESITY” (Eli Lilly and Company, priority 2023, published 2025).
*1 amine or outer side, *2 acyl side, *3 side chain or, on linkers, in order; H or OH if unused. Where a SMILES comes first, the peptide text is derived from it. Side-chain parts run from the residue outwards. [ ]: non-standard residue; d: D form. The star is where a group is joined. C20 diacid = O=C(O)CCCCCCCCCCCCCCCCCCC(=O)*; γGlu = O=C(O)[C@H](CCC(=O)[*:2])N[*:1]; εLys = N[C@@H](CCCCN[*:1])C(=O)[*:2]; NMeI = CC[C@H](C)[C@H](NC)C(=O)O; αMeL = CC(C)C[C@](C)(N)C(=O)O; AEEA = NCCOCCOCC(=O)O; Aib = CC(C)(N)C(=O)O

molecular target: T1, human CRHR2 (Homo sapiens, UniProt Q13324); test: Human CRHR2 cAMP assay (HTRF) in HEK293 cells stably expressing human CRHR2; assay type: cell-based; details: HEK293 cells overexpressing human CRHR2; relative EC50, maximum 10 nM human UCN2; mean ± SE; read-out: hCRHR2 cAMP EC50 (pM, ± SE)
T1 construct: expressed in transfected cells
T1 sequence (Q13324 1-438 isoform Q13324-2): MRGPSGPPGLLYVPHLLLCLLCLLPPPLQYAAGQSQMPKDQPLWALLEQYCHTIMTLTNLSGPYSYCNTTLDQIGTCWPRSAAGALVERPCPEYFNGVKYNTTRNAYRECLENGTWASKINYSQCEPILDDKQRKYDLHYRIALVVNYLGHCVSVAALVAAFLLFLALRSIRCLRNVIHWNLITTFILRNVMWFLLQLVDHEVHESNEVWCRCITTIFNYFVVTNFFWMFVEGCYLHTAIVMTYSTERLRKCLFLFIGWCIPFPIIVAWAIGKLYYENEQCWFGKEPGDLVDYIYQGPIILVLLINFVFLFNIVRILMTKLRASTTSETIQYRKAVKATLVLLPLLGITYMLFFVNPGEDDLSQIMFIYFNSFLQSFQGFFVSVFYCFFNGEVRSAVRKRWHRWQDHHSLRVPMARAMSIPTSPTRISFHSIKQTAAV
Summary of the method: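 cAMP (pmol/well) derived from HTRF fluorescence via a standard curve run in each experiment. Cells: HEK293 stably expressing human CRHR1 or CRHR2b; peptides in 1:3 series; CRHR1 1 h 37° C, CRHR2 30 min RT.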

Row | Compound | EC50
1 | CC[C@H](C)[C@H](NC)C(=O)N[C@H](C(=O)N[C@H](C(=O)N[C@@H](CO)C(=O)N[C@@H](CC(C)C)C(=O)N[C@@H](CC(=O)O)C(=O)N[C@H](C(=O)N1CCC[C@H]1C(=O)N[C@H](C(=O)NCC(=O)N[C@@](C)(CC(C)C)C(=O)N[C@@H](CC(C)C)C(=O)N[C@@H](CCC(N)=O)C(=O)N[C@@H](CCCCN)C(=O)N[C@@H](CC(C)C)C(=O)N[C@@H](CC(C)C)C(=O)N[C@@H](CCC(=O)O)C(=O)N[C@@H](CCC(N)=O)C(=O)N[C@@H](CCC(=O)O)C(=O)N[C@@H](CCCNC(=N)N)C(=O)N[C@@H](C)C(=O)N[C@@H](CCC(=O)O)C(=O)N[C@@H](CCCCN)C(=O)N[C@@H](C)C(=O)N[C@@H](CCCNC(=N)N)C(=O)N[C@@H](CCC(N)=O)C(=O)N[C@@H](CCC(N)=O)C(=O)N[C@@H](C)C(=O)N[C@@H](CCCCNC(=O)COCCOCCNC(=O)COCCOCCNC(=O)CC[C@H](NC(=O)CCCCCCCCCCCCCCCCCCC(=O)O)C(=O)O)C(=O)N[C@@H](CCC(=O)O)C(=O)N[C@@H](C)C(=O)N[C@@H](C)C(=O)N[C@@H](CCC(=O)O)C(=O)N[C@H](C(=O)N[C@@H](CC(C)C)C(=O)N[C@@H](C)C(=O)N[C@@H](CCC(N)=O)C(=O)N[C@H](C(N)=O)C(C)C)[C@@H](C)CC)[C@@H](C)CC)C(C)C)[C@@H](C)O)C(C)C [SEQ ID NO: 50, (NMeI) VTSLDVPIG αMeL LQKLLEQERAEKARQQAK((2-[2-(2-Amino-ethoxy)-ethoxy]-acetyl)2-γE-CO-(CH2)18-CO2H)EAAEILAQV-NH2] (H-[NMeI]VTSLDVPIG[αMeL]LQKLLEQERAEKARQQAK([AEEA-AEEA-γGlu-C20 diacid])EAAEILAQV-NH2) | 22.4 ± 3.6 pM
2 | CC[C@H](C)[C@H](NC)C(=O)N[C@H](C(=O)N[C@@H](CC(C)C)C(=O)N[C@@H](CO)C(=O)N[C@@H](CC(C)C)C(=O)N[C@@H](CC(=O)O)C(=O)N[C@H](C(=O)N1CCC[C@H]1C(=O)N[C@H](C(=O)NCC(=O)N[C@@H](CC(C)C)C(=O)N[C@@H](CC(C)C)C(=O)N[C@@H](CCC(N)=O)C(=O)N[C@H](C(=O)N[C@@H](CC(C)C)C(=O)N[C@@H](CC(C)C)C(=O)N[C@@H](CCC(=O)O)C(=O)N[C@@H](CCC(N)=O)C(=O)N[C@@H](CCC(=O)O)C(=O)N[C@@H](CCCCN)C(=O)N[C@@H](CCC(N)=O)C(=O)N[C@@H](CCC(=O)O)C(=O)N[C@@H](CCCCN)C(=O)N[C@@H](CCC(=O)O)C(=O)N[C@@H](CCCCN)C(=O)N[C@@H](CCC(N)=O)C(=O)N[C@@H](CCC(N)=O)C(=O)N[C@@H](C)C(=O)N[C@@H](CCCCNC(=O)COCCOCCNC(=O)COCCOCCNC(=O)CC[C@H](NC(=O)CC[C@H](NC(=O)CCCCCCCCCCCCCCCCCCC(=O)O)C(=O)O)C(=O)O)C(=O)N[C@H](C(=O)N[C@@H](CC(N)=O)C(=O)N[C@@H](C)C(=O)N[C@@H](CCC(N)=O)C(=O)N[C@H](C(=O)N[C@@H](CC(C)C)C(=O)N[C@@H](C)C(=O)N[C@@H](CCC(N)=O)C(=O)N[C@H](C(N)=O)C(C)C)[C@@H](C)CC)[C@@H](C)O)[C@@H](C)CC)[C@@H](C)CC)C(C)C)C(C)C [SEQ ID NO: 54] (H-[NMeI]VLSLDVPIGLLQILLEQEKQEKEKQQAK([AEEA-AEEA-γGlu-γGlu-C20 diacid])TNAQILAQV-NH2) | 29.8 ± 2.5 pM
3 | Ac-GSPSIVTS[αMeL]DVPT[Aib][αMeL]LQKLLEQERAEKARQQAK([γGlu-AEEA-εLys-C20 diacid])EAAEILAQV-NH2 [SEQ ID NO: 2, Ac-GSPSIVTS αMeL DVPT Aib αMeL LQKLLEQERAEKARQQAK(γE-(2-[2-(2-Amino-ethoxy)-ethoxy]-acetyl)-ϵK-CO-(CH2)18-CO2H)EAAEILAQV-NH2] | 12.3 ± 1.8 pM
4 | Ac-PPPIVTS[αMeL]DVPT[Aib][αMeL]LQKLLEQERAEKARQQAK([γGlu-AEEA-εLys-C20 diacid])EAAEILAQV-NH2 [SEQ ID NO: 48, Ac-PPPIVTS αMeL DVPT Aib αMeL LQKLLEQERAEKARQQAK(γE-(2-[2-(2-Amino-ethoxy)-ethoxy]-acetyl)-ϵK-CO-(CH2)18-CO2H)EAAEILAQV-NH2] | 26.7 ± 3.8 pM

Compounds with a lower EC50, results first:

Row | EC50 | Compound
5 | 5.6 ± 0.4 pM | CC[C@H](C)[C@H](NC(C)=O)C(=O)N[C@H](C(=O)N[C@H](C(=O)N[C@@H](CO)C(=O)N[C@@](C)(CC(C)C)C(=O)N[C@@H](CC(=O)O)C(=O)N[C@@H](C(=O)N1CCC[C@H]1C(=O)N[C@H](C(=O)NCC(=O)N[C@@](C)(CC(C)C)C(=O)N[C@@H](CC(C)C)C(=O)N[C@@H](CCC(N)=O)C(=O)N[C@H](C(=O)N[C@@H](CCCCN)C(=O)N[C@@H](CC(C)C)C(=O)N[C@@H](CCC(=O)O)C(=O)N[C@@H](CCC(N)=O)C(=O)N[C@@H](CCC(=O)O)C(=O)N[C@@H](CCCNC(=N)N)C(=O)N[C@@H](C)C(=O)N[C@@H](CCC(=O)O)C(=O)N[C@@H](CCCCN)C(=O)N[C@@H](C)C(=O)N[C@@H](CCCNC(=N)N)C(=O)N[C@@H](CCC(N)=O)C(=O)N[C@@H](CCC(N)=O)C(=O)N[C@@H](C)C(=O)N[C@@H](CCCCNC(=O)COCCOCCNC(=O)COCCOCCNC(=O)CC[C@H](NC(=O)CCCCCCCCCCCCCCCCCCC(=O)O)C(=O)O)C(=O)N[C@@H](CCC(=O)O)C(=O)N[C@@H](CC(N)=O)C(=O)N[C@H](C(=O)N[C@@H](CCC(=O)O)C(=O)N[C@H](C(=O)N[C@@H](CC(C)C)C(=O)N[C@@H](C)C(=O)N[C@@H](CCC(N)=O)C(=O)N[C@H](C(N)=O)C(C)C)[C@@H](C)CC)[C@@H](C)O)[C@@H](C)CC)[C@@H](C)O)C(C)C)[C@@H](C)O)C(C)C [SEQ ID NO: 29, Ac-IVTS αMeL D (D-Val) PTG αMeL LQIKLEQERAEKARQ QAK((2-[2-(2-Amino-ethoxy)-ethoxy]-acetyl)2-γE-CO-(CH2)18-CO2H)ENTEILAQV-NH2] (Ac-IVTS[αMeL]D[dV]PTG[αMeL]LQIKLEQERAEKARQQAK([AEEA-AEEA-γGlu-C20 diacid])ENTEILAQV-NH2)
6 | 7 ± 0.9 pM | CC[C@H](C)[C@H](NC(C)=O)C(=O)N[C@H](C(=O)N[C@H](C(=O)N[C@@H](CO)C(=O)N[C@@](C)(CC(C)C)C(=O)N[C@@H](CC(=O)O)C(=O)N[C@@H](C(=O)N1CCC[C@H]1C(=O)N[C@H](C(=O)NC(C)(C)C(=O)N[C@@](C)(CC(C)C)C(=O)N[C@@H](CC(C)C)C(=O)N[C@@H](CCC(N)=O)C(=O)N[C@H](C(=O)N[C@@H](CCCCN)C(=O)N[C@@H](CC(C)C)C(=O)N[C@@H](CCC(=O)O)C(=O)N[C@@H](CCC(N)=O)C(=O)N[C@@H](CCC(=O)O)C(=O)N[C@@H](CCCNC(=N)N)C(=O)N[C@@H](C)C(=O)N[C@@H](CCC(=O)O)C(=O)N[C@@H](CCCCN)C(=O)N[C@@H](C)C(=O)N[C@@H](CCCNC(=N)N)C(=O)N[C@@H](CCC(N)=O)C(=O)N[C@@H](CCC(N)=O)C(=O)N[C@@H](C)C(=O)N[C@@H](CCCCNC(=O)COCCOCCNC(=O)COCCOCCNC(=O)CC[C@H](NC(=O)CCCCCCCCCCCCCCCCCCC(=O)O)C(=O)O)C(=O)N[C@@H](CCC(=O)O)C(=O)N[C@@H](CC(N)=O)C(=O)N[C@H](C(=O)N[C@@H](CCC(=O)O)C(=O)N[C@H](C(=O)N[C@@H](CC(C)C)C(=O)N[C@@H](C)C(=O)N[C@@H](CCC(N)=O)C(=O)N[C@H](C(N)=O)C(C)C)[C@@H](C)CC)[C@@H](C)O)[C@@H](C)CC)[C@@H](C)O)C(C)C)[C@@H](C)O)C(C)C [SEQ ID NO: 41, Ac-IVTS αMeL D (D-Val) PT Aib αMeL LQIKLEQERAEKARQQAK((2-[2-(2-Amino-ethoxy)-ethoxy]-acetyl)2-γE-CO-(CH2)18-CO2H)ENTEILAQV-NH2] (Ac-IVTS[αMeL]D[dV]PT[Aib][αMeL]LQIKLEQERAEKARQQAK([AEEA-AEEA-γGlu-C20 diacid])ENTEILAQV-NH2)
7 | 6.6 ± 0.9 pM | CC[C@H](C)[C@H](NC)C(=O)N[C@H](C(=O)N[C@H](C(=O)N[C@@H](CO)C(=O)N[C@@H](CC(C)C)C(=O)N[C@@H](CC(=O)O)C(=O)N[C@H](C(=O)N1CCC[C@H]1C(=O)N[C@H](C(=O)NCC(=O)N[C@@](C)(CC(C)C)C(=O)N[C@@H](CC(C)C)C(=O)N[C@@H](CCC(N)=O)C(=O)N[C@@H](CCCCN)C(=O)N[C@@H](CC(C)C)C(=O)N[C@H](C(=O)N[C@@H](CCC(=O)O)C(=O)N[C@@H](CCC(N)=O)C(=O)N[C@@H](CCC(=O)O)C(=O)N[C@@H](CCCCN)C(=O)N[C@@H](CCC(N)=O)C(=O)N[C@@H](CCC(=O)O)C(=O)N[C@@H](CCCCN)C(=O)N[C@@H](CCC(=O)O)C(=O)N[C@@H](CCCCN)C(=O)N[C@@H](CCC(N)=O)C(=O)N[C@@H](CCC(N)=O)C(=O)N[C@@H](C)C(=O)N[C@@H](CCCCNC(=O)COCCOCCNC(=O)COCCOCCNC(=O)CC[C@H](NC(=O)CCCCCCCCCCCCCCCCCCC(=O)O)C(=O)O)C(=O)N[C@@H](CCC(=O)O)C(=O)N[C@@H](CC(N)=O)C(=O)N[C@H](C(=O)N[C@@H](CCC(=O)O)C(=O)N[C@H](C(=O)N[C@@H](CC(C)C)C(=O)N[C@@H](C)C(=O)N[C@@H](CCC(N)=O)C(=O)N[C@H](C(N)=O)C(C)C)[C@@H](C)CC)[C@@H](C)O)[C@@H](C)CC)[C@@H](C)CC)C(C)C)[C@@H](C)O)C(C)C [SEQ ID NO: 49, (NMeI) VTSLDVPIG αMeL LQKLIEQEKQEKEKQQAK((2-[2-(2-Amino-ethoxy)-ethoxy]-acetyl)2-γE-CO-(CH2)18-CO2H)ENTEILAQV-NH2] (H-[NMeI]VTSLDVPIG[αMeL]LQKLIEQEKQEKEKQQAK([AEEA-AEEA-γGlu-C20 diacid])ENTEILAQV-NH2)
